# Test results published in BindingDB's records for doi:10.1016/j.bmcl.2009.05.085 (Targacept, 2009).
# Target: Neuronal acetylcholine receptor subunit alpha-7 (Mus musculus, UniProt P49582)
# Test: Displacement of [125I]alpha-bungarotoxin from alpha7 nAChR in C57BL/6J mouse hippocampal membrane
# Neuronal acetylcholine receptor subunit alpha-7, sequence (P49582 whole entry): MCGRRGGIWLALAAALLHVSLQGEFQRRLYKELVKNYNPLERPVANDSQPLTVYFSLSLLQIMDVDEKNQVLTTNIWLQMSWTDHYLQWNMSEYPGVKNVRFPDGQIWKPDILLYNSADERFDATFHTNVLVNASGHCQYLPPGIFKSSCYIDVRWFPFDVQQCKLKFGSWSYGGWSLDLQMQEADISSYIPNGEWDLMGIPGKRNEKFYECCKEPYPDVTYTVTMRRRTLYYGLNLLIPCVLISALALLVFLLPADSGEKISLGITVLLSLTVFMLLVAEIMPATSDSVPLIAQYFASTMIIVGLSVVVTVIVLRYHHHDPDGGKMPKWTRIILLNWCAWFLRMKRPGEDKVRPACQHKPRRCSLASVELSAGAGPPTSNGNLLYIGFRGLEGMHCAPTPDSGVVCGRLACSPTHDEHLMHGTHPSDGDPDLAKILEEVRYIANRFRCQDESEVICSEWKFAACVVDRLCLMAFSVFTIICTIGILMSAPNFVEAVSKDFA
smiles,measurement,value
O=C(O)[C@@H](O)[C@H](O)[C@H](O)[C@@H](O)C(=O)O,Ki,> 10 µM
